Where two headings read alike, the source gives them in different places.
Biological target: T1, A. thaliana PRORP1 (Arabidopsis thaliana, UniProt Q66GI4)
T1 construct: made in house
T1 sequence (Q66GI4 77-572): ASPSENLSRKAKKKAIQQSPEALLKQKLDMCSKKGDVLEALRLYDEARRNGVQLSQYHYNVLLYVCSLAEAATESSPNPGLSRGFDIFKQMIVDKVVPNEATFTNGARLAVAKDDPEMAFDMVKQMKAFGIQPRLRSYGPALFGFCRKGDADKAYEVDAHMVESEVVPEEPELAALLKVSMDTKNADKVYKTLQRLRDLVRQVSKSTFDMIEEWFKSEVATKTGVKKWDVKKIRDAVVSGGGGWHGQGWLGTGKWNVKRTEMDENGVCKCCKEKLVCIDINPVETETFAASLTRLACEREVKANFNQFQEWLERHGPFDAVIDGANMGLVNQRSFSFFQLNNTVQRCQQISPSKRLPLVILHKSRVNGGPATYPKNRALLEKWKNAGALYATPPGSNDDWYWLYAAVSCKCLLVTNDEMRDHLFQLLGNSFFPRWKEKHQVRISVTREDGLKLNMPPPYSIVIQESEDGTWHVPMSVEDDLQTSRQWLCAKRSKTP
Experiment: FP cleavage assay, PRORP1 dose response
Assay type: biochemical
Conditions: for activity at 6.25 µM: read-out: PRORP1 Activity (%)
Method: Compounds gambogic acid (A) and juglone (B) were incubated with enzyme at double the reaction concentration for 30 min prior to the addition of an equal volume of substrate to initiate the reaction. PRORP1 reactions (shown in green) were performed with 0.3 nM PRORP1 and 800 nM pre-tRNA containing 40 nM Fl-pre-tRNA at 25 °C in 30 mM MOPS pH 7.8, 5 mM MgCl2, 100 mM NaCl, 1 mM TCEP, 500 nM (12 μg/ml) yeast tRNA, 5 mM spermidine, 6.65 μg/ml BSA, and 0.01% NP-40. MRPP1/2/3 reactions (shown in red) were performed using 50 nM MRPP3, 500 nM MRPP1/2, 500 nM pre-tRNA containing 40 nM Fl-pre-tRNA at 37 °C in 50 mM MOPS (pH 7.8), 1 mM TCEP, 4.5 mM MgCl2, and 100 mM NaCl. B. subtilis RNase P reactions (shown in blue) were performed using 20 nM RNase P and 500 nM pre-tRNA containing 40 nM Fl-pre-tRNA at 37 °C in 50 mM Tris, pH 7.2, 5 mM MgCl2, 100 mM KCl, 500 nM (12 μg/ml) yeast tRNA, 20 mM dithiothreitol (DTT), 10 mM spermidine, and 0.01% NP-40. Equation 1 was fit to each dataset.
The activity of PRORP1 catalyzed pre-tRNA cleavage was measured by monitoring the fluorescence anisotropy (FA) signal (λex = 485 nm and λem = 535 nm) over time at 25 °C in buffer conditions optimized for a high-throughput format, 30 mM MOPS pH 7.8, 5 mM MgCl2, 100 mM NaCl, 1 mM TCEP, 500 nM (12 μg/ml) yeast tRNA, 5 mM spermidine, 6.65 μg/ml BSA, and 0.01% NP-40. Yeast tRNA^mix (Roche) was used to reduce the number of compounds that inhibit PRORP1 activity by targeting tRNA. Prior to each reaction, pre-tRNA was heated for 3 min at 95 °C to unfold the RNA and refolded in the reaction buffer at room temperature (25 °C) for 30 min. Reactions were performed in black, 96-well plates (Corning Incorporation, #3686) using a TECAN plate-reader (Infinite F500, G-factor = 1.05) at 25 °C, and the FA values recorded. Reactions were initiated with the addition of substrate to enzyme. Experiments were done in the presence of excess substrate. The concentration of enzyme was 0.3 to 5 nM, the concentration of labeled substrate (Fl-pre-tRNA) was 40 nM, and the concentration of pre-tRNA was 120 to 4000 nM. The concentration of Fl-pre-tRNA was held constant in all reactions.
The dose response was measured using the FP assay as described above with varying concentrations of compound. Compounds were incubated with PRORP1 at twice the reaction concentration for 30 min prior to the addition of equal volumes of substrate to initiate the reaction. Experiments were done under multiple turnover conditions (same buffer conditions as the FP assay). […] PRORP1 activity was determined as a function of inhibitor concentration, and Equation 1 was fit to the data to determine the IC50 value. The standard error of the mean (SEM) is reported from the fit.(1) Activity(%)=100/1+([I]/IC50)^n

[1] = 6.25 μM of inhibitor, FP cleavage assay

Row | SMILES | activity at 6.25 µM [1] [%] | also measured
1 | CC(=O)O[C@@H]1C[C@@]2(C)[C@H](c3ccoc3)C[C@H]3O[C@]32[C@]2(C)C(=O)C(O)=C3C(C)(C)C(=O)C=C[C@]3(C)[C@@H]12 [anthothecol] | 15.5 | –
2 | O=C(O)C1=CC(=C(c2ccc(O)c(C(=O)O)c2)c2ccc(O)c(C(=O)O)c2)C=CC1=O [aurintricarboxylic acid] | 46.5 | –
3 | O=C1C(Cl)=C(Cl)C(=O)C(Cl)=C1Cl [chloranil] | 40.2 | –
4 | Cc1cc(-c2ccc(/N=N/c3ccc4c(S(=O)(=O)O)cc(S(=O)(=O)O)c(N)c4c3O)c(C)c2)ccc1/N=N/c1ccc2c(S(=O)(=O)O)cc(S(=O)(=O)O)c(N)c2c1O [evans blue] | 20.2 | –
5 | CN(C)c1ccc(C(=C2C=CC(=[N+](C)C)C=C2)c2ccc(N(C)C)cc2)cc1 [gentian violet] | 0 | –
6 | COC(=O)/C(C)=C\C[C@@]12OC(C)(C)[C@@H]3C[C@@H](C=C4C(=O)c5c(O)c6c(c(CC=C(C)C)c5O[C@]431)O[C@](C)(CCC=C(C)C)C=C6)C2=O [methyl gambogate] | – | activity at 6.25 µM: 34.8%
7 | CC(=O)[O][Hg][c]1ccccc1 [phenylmercuric acetate] | – | PRORP1 Activity (%) [1]: 32.2%
8 | CC1=CC(=O)c2c(O)cccc2C1=O [plumbagin] | 2.6 | –
